Read-outs that look alike come from different tables or passages of the source.
Tests used:
CYP2A6 [1] = molecular target: T1, CYP2A6 (Homo sapiens, UniProt P11509); type: biochemical; settings: for inhibition of cotinine formation: nicotine substrate, CYP2A6 microsomes, vs 100% activity control; for IC50: nicotine 100 μM, rec CYP2A6 microsomes
T1 sequence (P11509 1-494): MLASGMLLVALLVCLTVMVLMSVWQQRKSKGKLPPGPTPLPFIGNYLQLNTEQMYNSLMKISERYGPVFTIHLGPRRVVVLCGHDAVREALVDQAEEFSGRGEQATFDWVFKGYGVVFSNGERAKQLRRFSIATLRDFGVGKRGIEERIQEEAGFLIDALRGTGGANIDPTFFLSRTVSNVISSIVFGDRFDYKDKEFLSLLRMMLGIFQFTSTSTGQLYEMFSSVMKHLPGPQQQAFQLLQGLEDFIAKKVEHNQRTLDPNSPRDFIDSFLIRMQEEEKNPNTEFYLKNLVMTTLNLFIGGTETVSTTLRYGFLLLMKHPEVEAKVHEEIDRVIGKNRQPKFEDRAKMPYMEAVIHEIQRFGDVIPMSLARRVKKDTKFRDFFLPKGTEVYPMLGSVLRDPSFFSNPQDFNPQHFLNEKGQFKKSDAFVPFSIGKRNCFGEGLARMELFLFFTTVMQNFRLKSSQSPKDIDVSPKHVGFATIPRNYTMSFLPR

[2] = system: human liver microsomes (HLM); assay: Inhibition of nicotine to cotinine formation in pooled human liver microsomes; type: biochemical; settings: nicotine 500 μM
FMO1 = molecular target: T2, FMO1 (Homo sapiens, UniProt Q01740); type: biochemical; settings: 1 or 10 μM cannabinoid; nicotine 1 mM; FMO1 microsomes
T2 sequence (Q01740 1-532): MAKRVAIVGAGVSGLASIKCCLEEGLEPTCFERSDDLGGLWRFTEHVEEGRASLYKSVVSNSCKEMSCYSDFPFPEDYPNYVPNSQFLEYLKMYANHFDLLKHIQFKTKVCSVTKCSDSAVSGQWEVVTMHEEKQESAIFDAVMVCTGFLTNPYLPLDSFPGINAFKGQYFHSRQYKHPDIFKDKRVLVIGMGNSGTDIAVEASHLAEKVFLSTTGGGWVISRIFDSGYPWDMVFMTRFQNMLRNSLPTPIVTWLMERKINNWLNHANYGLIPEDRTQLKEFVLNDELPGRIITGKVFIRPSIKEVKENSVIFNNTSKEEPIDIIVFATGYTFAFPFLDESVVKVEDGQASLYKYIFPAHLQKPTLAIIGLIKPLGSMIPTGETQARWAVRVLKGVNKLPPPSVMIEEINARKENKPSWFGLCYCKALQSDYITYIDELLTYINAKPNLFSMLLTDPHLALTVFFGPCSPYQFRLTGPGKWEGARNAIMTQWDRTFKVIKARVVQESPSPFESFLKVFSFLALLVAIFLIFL

CYP2B6 [3] = molecular target: T3, CYP2B6 (Homo sapiens, UniProt P20813); type: biochemical; settings: for inhibition of nornicotine formation: nicotine substrate, CYP2B6 microsomes
T3 sequence (P20813 1-491): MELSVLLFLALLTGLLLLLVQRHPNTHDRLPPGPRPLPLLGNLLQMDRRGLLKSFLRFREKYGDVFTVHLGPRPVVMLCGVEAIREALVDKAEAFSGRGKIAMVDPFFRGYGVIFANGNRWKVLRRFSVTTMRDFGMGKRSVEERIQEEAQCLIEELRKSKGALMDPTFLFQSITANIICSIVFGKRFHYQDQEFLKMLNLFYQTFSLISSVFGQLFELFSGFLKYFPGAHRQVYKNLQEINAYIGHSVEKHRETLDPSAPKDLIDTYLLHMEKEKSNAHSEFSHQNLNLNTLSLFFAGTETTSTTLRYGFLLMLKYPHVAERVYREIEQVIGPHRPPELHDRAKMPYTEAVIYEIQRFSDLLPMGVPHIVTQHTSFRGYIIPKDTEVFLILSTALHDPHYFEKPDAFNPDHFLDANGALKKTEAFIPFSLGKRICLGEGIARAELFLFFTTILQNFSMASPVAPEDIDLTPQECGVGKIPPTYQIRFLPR

CYP2A6 [4] = molecular target: T1, CYP2A6; type: biochemical; settings: for decrease of 3HC formation: cotinine substrate, CYP2A6 microsomes; for IC50: cotinine 100 μM, rec CYP2A6 microsomes
[5] = system: human liver microsomes (HLM); assay: Inhibition of cotinine to 3HC formation in pooled human liver microsomes; type: biochemical; settings: cotinine 900 μM
CYP2B6 [6] = molecular target: T3, CYP2B6; type: biochemical; settings: for inhibition of cotinine formation: nicotine substrate, CYP2B6 microsomes
UGT1A4 = molecular target: T4, UGT1A4 (Homo sapiens, UniProt P22310); type: biochemical; settings: UGT1A4 microsomes; nicotine or cotinine as substrate; screening
T4 sequence (P22310 29-534): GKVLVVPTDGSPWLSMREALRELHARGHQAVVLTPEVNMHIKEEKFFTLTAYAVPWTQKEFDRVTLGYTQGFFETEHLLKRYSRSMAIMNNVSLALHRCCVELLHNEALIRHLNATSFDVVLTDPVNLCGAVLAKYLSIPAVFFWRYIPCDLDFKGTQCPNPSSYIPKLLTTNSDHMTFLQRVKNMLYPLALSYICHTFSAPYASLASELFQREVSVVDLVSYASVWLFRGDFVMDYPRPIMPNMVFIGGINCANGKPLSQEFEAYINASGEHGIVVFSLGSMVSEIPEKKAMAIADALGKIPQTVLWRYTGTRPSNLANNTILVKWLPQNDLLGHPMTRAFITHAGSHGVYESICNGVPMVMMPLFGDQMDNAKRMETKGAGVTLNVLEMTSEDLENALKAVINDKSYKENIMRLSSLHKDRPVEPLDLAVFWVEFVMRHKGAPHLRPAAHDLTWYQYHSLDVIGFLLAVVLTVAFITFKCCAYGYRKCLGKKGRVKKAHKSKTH

CYP2A6 [7] = molecular target: T1, CYP2A6; type: biochemical; settings: for inhibition of nornicotine formation: nicotine substrate, CYP2A6 microsomes; for IC50: nicotine 50 μM, rec CYP2A6 microsomes
[8] = cited from earlier work; for physiological levels in the plasma corrected for plasma protein binding: after a single clinical dose of CBD
[9] = single dose regimen of Epidiolex (6000 mg)
[10] = human, microsomes from CYP2B6-overexpressing HEK293 cells, pH 7.4, probe nicotine (nornicotine formation)
[11] = human, microsomes from CYP2B6-overexpressing HEK293 cells, pH 7.4, probe nicotine (cotinine formation)

Compound: C=C(C)[C@@H]1CCC(CO)=C[C@H]1c1c(O)cc(CCCCC)cc1O [7-OH-CBD, 7-hydroxy-cannabidiol]
- inhibition of cotinine formation (CYP2A6 [1]; 1 μM inhibitor): 50%
- inhibition of cotinine formation (CYP2A6 [1]; 10 μM inhibitor): 75%
- IC50 (CYP2A6 [1]; cotinine formation, mean ± SD of three experiments): 5800 ± 2300 nM
- IC50 (CYP2A6 [1]; read-out: IC50,u (binding-corrected IC50), cotinine formation, IC50 × fu,inc): 450 ± 180 nM
- IC50 [2]: 21000 ± 5200 nM
- inhibitory effect on NOX formation (FMO1): No inhibitory effect
- inhibition of nornicotine formation (CYP2B6 [3]; 1 μM inhibitor): 64%
- inhibition of nornicotine formation (CYP2B6 [3]; 10 μM inhibitor): 72%
- IC50 (CYP2B6 [3]; nornicotine formation, nicotine 100 μM, rec CYP2B6 microsomes): 1400 ± 400 nM
- IC50 (CYP2B6 [3]; read-out: IC50,u (binding-corrected IC50), nornicotine formation, nicotine 100 μM, rec CYP2B6 microsomes, IC50 × fu,inc): 110 ± 30 nM
- decrease of 3HC formation (CYP2A6 [4]; 1 μM inhibitor): 45%
- decrease of 3HC formation (CYP2A6 [4]; 10 μM inhibitor): 65%
- IC50 (CYP2A6 [4]; 3HC formation): 10000 ± 3000 nM
- IC50 (CYP2A6 [4]; read-out: IC50,u (binding-corrected IC50), 3HC formation, IC50 × fu,inc): 780 ± 230 nM
- IC50 [5]: 9100 ± 3400 nM
- inhibition of cotinine formation (CYP2B6 [6]; 1 μM inhibitor): 35%
- inhibition of cotinine formation (CYP2B6 [6]; 10 μM inhibitor): 50%
- IC50 (CYP2B6 [6]; cotinine formation, nicotine 500 μM, rec CYP2B6 microsomes): 15000 ± 5700 nM
- inhibition of nicotine-Gluc or cotinine-Gluc formation (UGT1A4): no significant inhibition
- inhibition of nornicotine formation (CYP2A6 [7]; 1 μM inhibitor): 55%
- inhibition of nornicotine formation (CYP2A6 [7]; 10 μM inhibitor): 70%
- IC50 (CYP2A6 [7]; nornicotine formation): 2100 ± 970 nM
- IC50 (CYP2A6 [7]; read-out: IC50,u (binding-corrected IC50), nornicotine formation, IC50 × fu,inc): 160 ± 80 nM
- physiological levels in the plasma corrected for plasma protein binding [8]: 0.04–0.09 μM
- calculated unbound plasma Cmax [8, 9]: 93.6 nM

Compound: C=C(C)[C@@H]1CCC(C)=C[C@H]1c1c(O)cc(CCCCC)cc1O [CBD, cannabidiol]
- IC50 (CYP2A6 [1]; IC50, cotinine formation, mean ± SD of three experiments): 4400 ± 1000 nM
- IC50 (CYP2A6 [1]; IC50,u (binding-corrected IC50), cotinine formation, IC50 × fu,inc): 270 ± 60 nM
- IC50 [2]: 10000 ± 2900 nM
- inhibitory effect on NOX formation (FMO1): No inhibitory effect
- IC50 (CYP2B6 [3]; IC50, nornicotine formation, nicotine 100 μM, rec CYP2B6 microsomes): 470 ± 77 nM
- IC50 (CYP2B6 [3]; IC50,u (binding-corrected IC50), nornicotine formation, nicotine 100 μM, rec CYP2B6 microsomes, IC50 × fu,inc): 29 ± 5 nM
- IC50 at 30 min (CYP2B6 [3]; human, microsomes from CYP2B6-overexpressing HEK293 cells, pH 7.4, probe nicotine 100 μM (nornicotine formation), IC50,u (binding-corrected IC50), nornicotine formation, nicotine 100 μM, rec CYP2B6 microsomes, IC50 × fu,inc): 30 ± 5 nM
- inhibition at 30 min, 1 µM (CYP2B6 [3]; [10]): 75%
- inhibition at 30 min, 10 µM (CYP2B6 [3]; [10]): 85%
- decrease of 3HC formation (CYP2A6 [4]; 1 μM inhibitor): 55%
- decrease of 3HC formation (CYP2A6 [4]; 10 μM inhibitor): 60%
- IC50 (CYP2A6 [4]; IC50, 3HC formation): 3400 ± 2300 nM
- IC50 (CYP2A6 [4]; IC50,u (binding-corrected IC50), 3HC formation, IC50 × fu,inc): 210 ± 140 nM
- IC50 [5]: 8800 ± 1300 nM
- IC50 (CYP2B6 [6]): 4200 ± 2700 nM
- inhibition at 30 min, 1 µM (CYP2B6 [6]; [11]): 50%
- inhibition at 30 min, 10 µM (CYP2B6 [6]; [11]): 65%
- inhibition of nicotine-Gluc or cotinine-Gluc formation (UGT1A4): no significant inhibition
- IC50 (CYP2A6 [7]; IC50, nornicotine formation): 3700 ± 2200 nM
- IC50 (CYP2A6 [7]; IC50,u (binding-corrected IC50), nornicotine formation, IC50 × fu,inc): 230 ± 140 nM
- physiological levels in the plasma corrected for plasma protein binding [8]: 0.06–0.15 μM
- Cmax ([8]; read-out: plasma Cmax (maximum concentration), total, single dose regimen of Epidiolex (6000 mg)): 2500 nM
- calculated unbound plasma Cmax [8, 9]: 75 nM

From article PMC9945182 (Chemical Research in Toxicology, 2023)
